Experimental data: ChEMBL document CHEMBL3351419, “Orally bioavailable 6-chloro-7-methoxy-4(1H)-quinolones efficacious against multiple stages of Plasmodium” (J Med Chem, 2014)

Legend:
[1] = Resistance index, ratio of EC50 for multi-drug-resistant Plasmodium falciparum TM90-C2B infected in human type A+ erythrocytes to EC50 for multi-drug-resistant Plasmodium falciparum W2 infected in human type A+ erythrocytes; type: functional
Plasmodium falciparum [2] = experiment: Antimalarial activity against multi-drug-resistant Plasmodium falciparum W2 infected in human type A+ erythrocytes assessed as growth inhibition after 72 hrs by SYBR Green I assay; type: functional, organism-based; details: W2, 72 h
J774 = experiment: Cytotoxicity against mouse J774 cells after 72 hrs by CellTiter 96 assay; type: cell-based; details: J774, 72 h
[3] = Cytotoxicity index, ratio of EC50 for mouse J774 cells to EC50 for multi-drug-resistant Plasmodium falciparum TM90-C2B infected in human type A+ erythrocytes; type: toxicity, cell-based; details: read-out: Ratio EC50
Plasmodium falciparum [4] = experiment: Antimalarial activity against multi-drug-resistant Plasmodium falciparum TM90-C2B infected in human type A+ erythrocytes assessed as growth inhibition after 72 hrs by SYBR Green I assay; type: functional, organism-based
[5] = octanol/water, pH 7.4

SMILES | Ratio EC50 [1] | EC50 (Plasmodium falciparum [2]) | EC50 (J774) | selectivity ratio [3] | EC50 (Plasmodium falciparum [4]) | logD [5]
COc1cc2[nH]c(C)c(-c3ccc(C)cc3)c(=O)c2cc1Cl | 0.3 | 24.5 nM | > 31900 nM | > 4350 | 7.33 nM | 
COc1cc2[nH]c(C)c(-c3ccc(C)cc3C)c(=O)c2cc1Cl | 0.35 | 9.15 nM | 3740 nM | 1180 | 3.17 nM | 
COc1cc2[nH]c(C)c(-c3c(C)cc(C)cc3C)c(=O)c2cc1Cl | 1.01 | 46 nM | 2990 nM | 64.6 | 46.3 nM | 
CCc1ccccc1-c1c(C)[nH]c2cc(OC)c(Cl)cc2c1=O | 2.59 | 61.7 nM | 16200 nM | 102 | 160 nM | 
COc1cc2[nH]c(C)c(-c3ccc(C(C)C)cc3)c(=O)c2cc1Cl | 0.4 | 6.65 nM | > 29300 nM | > 11000 | 2.67 nM | 
COc1cc2[nH]c(C)c(-c3ccc(C(C)(C)C)cc3)c(=O)c2cc1Cl |  | 66.8 nM | > 28100 nM |  | 116 nM | 
COc1cc2[nH]c(C)c(-c3ccccn3)c(=O)c2cc1Cl | 0.23 | 928 nM | > 33300 nM | > 156 | 214 nM | 
COc1cc2[nH]c(C)c(-c3cncnc3)c(=O)c2cc1Cl | 0.45 | 2990 nM | > 33100 nM | > 24.4 | 1360 nM | 
COc1cc2[nH]c(C)c(-c3ccoc3)c(=O)c2cc1Cl | 0.14 | 13.3 nM | > 34500 nM | > 18600 | 1.85 nM | 
COc1cc2[nH]c(C)c(-c3c(C)noc3C)c(=O)c2cc1Cl | 0.59 | 1060 nM | > 31400 nM | > 49.9 | 629 nM | 
COc1cc2[nH]c(C)c(-c3ccc4nonc4c3)c(=O)c2cc1Cl | 0.04 | 1970 nM | > 29300 nM | > 363 | 80.6 nM | 
COc1cc2[nH]c(C)c(-c3cc4ccccc4o3)c(=O)c2cc1Cl | 1.04 | 133 nM | > 29400 nM | > 214 | 138 nM | 
COc1cc2[nH]c(C)c(-c3cc4ccccc4s3)c(=O)c2cc1Cl | 0.35 | 71.8 nM | > 28100 nM | > 1130 | 24.8 nM | 
COc1cc2[nH]c(C)c(-c3ccc4c(c3)OCCO4)c(=O)c2cc1Cl | 0.53 | 173 nM | > 27900 nM | > 304 | 91.9 nM | 
COc1cc2[nH]c(C)c(-c3cccc4c3oc3ccccc34)c(=O)c2cc1Cl | 0.68 | 49 nM | > 25700 nM | > 765 | 33.6 nM | 
COc1cc2[nH]c(C)c(-c3ccc(C=O)cc3)c(=O)c2cc1Cl | 0.7 | 5520 nM | > 30500 nM |  | > 3810 nM | 
COc1cc2[nH]c(C)c(-c3ccc(C(C)=O)cc3)c(=O)c2cc1Cl | 0.06 | 777 nM | > 29300 nM | > 605 | 48.4 nM | 
COc1cc2[nH]c(C)c(-c3ccc(C(=O)O)cc3)c(=O)c2cc1Cl | 0.14 | 517 nM | > 29100 nM | > 398 | 73.1 nM | 

SMILES | Ratio EC50 [1] | EC50 (Plasmodium falciparum [2]) | EC50 (J774) | selectivity ratio [3] | EC50 (Plasmodium falciparum [4]) | logD [5]
COC(=O)c1ccc(-c2c(C)[nH]c3cc(OC)c(Cl)cc3c2=O)cc1 | 1.16 | 22.5 nM | > 27900 nM | > 1080 | 26 nM | 
COc1cc2[nH]c(C)c(-c3ccc(N(C)C)cc3)c(=O)c2cc1Cl | 0.25 | 60.7 nM |  | > 1900 | 15.3 nM | 
COc1cc2[nH]c(C)c(-c3ccc(S(=O)(=O)N(C)C)cc3)c(=O)c2cc1Cl | 0.08 | 1890 nM | > 24600 nM | > 162 | 152 nM | 
COc1cc2[nH]c(C)c(-c3ccc(O)cc3)c(=O)c2cc1Cl | 0.16 | 2860 nM | > 31700 nM | > 67.8 | 467 nM | 
COc1cc2[nH]c(C)c(-c3ccccc3CO)c(=O)c2cc1Cl | 1.08 | 258 nM | > 30300 nM | > 109 | 277 nM | 
COc1cc2[nH]c(C)c(-c3cccc(CO)c3)c(=O)c2cc1Cl | 0.15 | 5400 nM | > 30300 nM | > 36.6 | 829 nM | 
COc1cc2[nH]c(C)c(-c3ccc(OCc4ccccc4)cc3)c(=O)c2cc1Cl | 0.12 | 10.6 nM | > 24600 nM | > 19300 | 1.28 nM | 
COc1cc2[nH]c(C)c(-c3ccc(COc4ccccc4)cc3)c(=O)c2cc1Cl | 0.49 | 1.3 nM |  |  | 0.638 nM | 
COc1cc2[nH]c(C)c(-c3c(F)cccc3F)c(=O)c2cc1Cl | 0.24 | 35.7 nM | > 29800 nM | > 3450 | 8.64 nM | 
COc1cc2[nH]c(C)c(-c3cc(C(F)(F)F)cc(C(F)(F)F)c3)c(=O)c2cc1Cl | 0.27 | 1680 nM | > 22900 nM | > 51.1 | 449 nM | 
COc1cc2[nH]c(C)c(-c3ccc(C(F)(F)F)cc3F)c(=O)c2cc1Cl | 0.48 | 21.4 nM | > 25900 nM | > 2500 | 10.4 nM | 
CCOc1cc(-c2c(C)[nH]c3cc(OC)c(Cl)cc3c2=O)ccc1F | 0.13 | 194 nM | > 27600 nM | > 1070 | 25.8 nM | 
COc1cc2[nH]c(C)c(-c3ccc(OC)c(F)c3F)c(=O)c2cc1Cl | 2.57 | 157 nM | > 27300 nM | > 67.8 | 403 nM | 
COc1cc2[nH]c(C)c(-c3ccccc3OC(F)(F)F)c(=O)c2cc1Cl | 4.32 | 443 nM | > 30200 nM | > 15.8 | 1910 nM | 
COc1cc2[nH]c(C)c(-c3ccc(OCc4ccc(F)cc4)cc3)c(=O)c2cc1Cl |  | 5.18 nM | > 23600 nM |  | 1.56 nM | 
C(=C\c1ccccc1)/CN1CCN(C(c2ccccc2)c2ccccc2)CC1 [CINNARIZINE] |  |  |  |  |  | 5.68
CC(C)(C)NCC(O)COc1cccc2c1CC(O)C(O)C2 (stereo not given) [NADOLOL] |  |  |  |  |  | 0.68
Cn1c(=O)c2[nH]cnc2n(C)c1=O.O [THEOPHYLLINE] |  |  |  |  |  | -5
